Results from patent US20120165383A1, “INFLAMMATORY EYE DISEASE” (MASSACHUSETTS EYE & EAR INFIRMARY, priority 2004, published 2012).

What was measured:
[1] = system: VEGF; experiment: Retinal VEGF levels, ELISA, EIU rats; type: in vivo, rat; conditions: for LPS-induced increase of VEGF levels in the retina: 1 mg/kg GA i.p. 24 h before LPS, FIG. 5
Method: (§1) Materials and Methods: Female Lewis rats received a single intraperitoneal injection of 1 mg/kg GA or vehicle (DMSO). EIU was induced 24 hours later by a footpad injection of 200 mg/kg lipopolysaccharide (LPS).
(§2) Retinal levels of VEGF, TNF-α, and leukocyte total levels of the LPS receptor CD14 were quantified with an ELISA method, whereas membranous CD14 levels were assessed with membrane precipitation and subsequent immunoblotting. For the ELISA, one day after the administration of the LPS rats were euthanized and retinal lysates were prepared on ice in RIPA lysis buffer (1% NP-40, 0.5% deoxycholate (DOC), 1% SDS, 150 mmol/L NaCl, 50 mmol/L Tris-HCl [pH 8.0]) containing sodium fluorid, […], phenylmethylsulfonylfluorid (PMSF), leupeptin and aprotinin. Protein concentration was determined by Bradford assay (Protein Assay, Bio-Rad, Hercules, Calif.). Samples containing the same amount of protein were assayed for their VEGF, TNF-α and CD14 levels with a commercially available kit (R&D systems, CA) as per the instructions of the manufacturer.

[2] = system: TNF-α; experiment: Retinal TNF-α levels, ELISA, EIU rats; type: in vivo, rat; conditions: for LPS-induced increase of TNF-alpha levels in the retina: 1 mg/kg GA i.p. 24 h before LPS, FIG. 6
Method: as §1, §2

[3] = Phase I trials in various neoplasias; cited from earlier work
[4] = system: HIF-1α; experiment: Retinal HIF-1α activity, modified ELISA binding assay, EIU rats; type: in vivo, rat; conditions: 1 mg/kg GA i.p. 24 h before LPS, FIG. 3
Method: as §1
(§3) Retinal activities of NF-κB and HIF-1α were quantified with a modified ELISA method as described in Poulaki et al., Am. J. Pathol. 165(2):457-69 (2004) and Poulaki et al., J. Clin. Invest. 109(6):805-15 (2002). NF-κB activation was analyzed using the Trans-AM NF-κB […] transcription factor assay kit (Active Motif, Carlsbad, Calif.) according to the manufacturer's instructions, as previously described (Mitsiades et al., Proc. Natl. Acad. Sci. USA, 99:14374-14379 (2002); Mitsiades et al., Blood, 99:4525-4530 (2002)). […] Transcription factor binding to the target oligonucleotide was detected by incubation with respective specific primary monoclonal antibodies, visualized by anti-IgG horseradish peroxidase conjugate and developing solution, and quantified at 450 nm with a reference wavelength of 655 nm. Background binding was calculated by adding in selected wells the respective consensus oligonucleotides in excess (20 pmol/well) as soluble competitors that prevented transcription factor binding to the probe immobilized on the plate. […]

[5] = system: membrane CD14; experiment: Membranous CD14 levels in leukocytes, membrane precipitation and immunoblotting, EIU rats; type: in vivo, rat; conditions: 1 mg/kg GA i.p. 24 h before LPS, FIG. 2
Method: Retinal levels of VEGF, TNF-α, and leukocyte total levels of the LPS receptor CD14 were quantified with an ELISA method, whereas membranous CD14 levels were assessed with membrane precipitation and subsequent immunoblotting. […] Protein concentration was determined by Bradford assay (Protein Assay, Bio-Rad, Hercules, Calif.). […]
Neutrophils were isolated from whole blood by density gradient centrifugation with Histopaque® 1083 cell separation media (Sigma, St Louis, Mo.) according to the manufacturer's instructions. […] The preparations contained>85% monocytes as determined by eosin and methylene blue staining (Leukostat Staining System, Fisher Scientific, Pittsburgh, Pa.). […] The samples were cleared by centrifugation (14,000 rpm, 30 min, 40° C.) and assessed for protein concentration. Biotinylated proteins, representing the cell surface proteins, were immunoprecipitated with Streptavidin-agarose for 2 hours at 40° C., electrophoresed in an SDS-PAGE and CD14 levels were detected by Western Blotting as described.

[6] = system: blood-retinal barrier; experiment: Blood-retinal barrier breakdown by Evans Blue extravasation, EIU rats; type: in vivo, rat; conditions: 1 mg/kg GA i.p. 24 h before LPS
Method: as §1
(§4) Leukocyte activation was quantified with a myeloperoxidase (MPO) activity assay and blood-retinal barrier breakdown was assessed by Evans Blue extravasation. Animals were anesthetized and Evans blue dye (Sigma) dissolved in normal saline (30 mg/ml) was injected through the tail vein at a dosage of 45 mg/kg body weight. After the dye had circulated for 120 minutes, the chest cavity was opened and blood samples were obtained from the left ventricle to assess the Evans blue plasma concentration. These blood samples were centrifuged at 16,000 g for 5 minutes. […] The absorbance of Evans blue was measured by spectrophotometry as described below. […] The background-subtracted absorbance was determined by measuring each sample at 620 nm (absorbance maximum for Evans blue in formamide) and 740 nm (absorbance minimum). The concentrations of dye in the extracts and the blood samples were calculated using a standard curve of Evans blue in formamide. Blood-ocular barrier breakdown was calculated using the following equation, with results being expressed in microliters of plasma per gram of retina dry weight times hours of dye circulating time. […]

[7] = system: CD14; experiment: Leukocyte total levels of the LPS receptor CD14, EIU rats; type: in vivo, rat; conditions: 1 mg/kg GA i.p. 24 h before LPS, FIG. 1
Method: as §1, §2

[8] = system: intercellular adhesion molecule 1 (ICAM-1); experiment: Retinal ICAM-1 levels, EIU rats; type: in vivo, rat; conditions: rats with EIU; FIG. 8
Method: as §1

[9] = system: myeloperoxidase (MPO) activity; experiment: Leukocyte activation, myeloperoxidase (MPO) activity assay, EIU rats; type: in vivo, rat; conditions: 1 mg/kg GA i.p. 24 h before LPS, leukocytes from rats with EIU, FIG. 7
Method: as §1, §4

[10] = system: leukocyte adhesion; experiment: Quantitative endothelial cell-neutrophil adhesion assay in vitro, endotoxin-induced uveitis (EIU) rats; type: cell-based, rat; conditions: 1 mg/kg GA i.p. 24 h before LPS; evaluated 24 h after LPS; vs DMSO vehicle
Method: as §1
(§5) Twenty-four hours after the administration of LPS, leukocyte adhesion was evaluated in vitro with quantitative endothelial cell-neutrophil adhesion assays and ex vivo with concanavalin A lectin staining of retinal flatmounts, as follows. After the induction of deep anesthesia in the rat, the chest cavity was opened, and a 14-gauge perfusion cannula was introduced to the left ventricle. The right atrium was opened with a 12-gauge needle to achieve outflow. With the heart providing the motive force, 250 mL/kg PBS was administered from the perfusion cannula to remove erythrocytes and non-adherent leukocytes. […] Lectin staining was followed by 1% bovine serum albumin (BSA)/PBS perfusion for 1 minute, and PBS perfusion alone for 4 minutes, to remove excess concanavalin A. The retinas were flatmounted in a water-based fluorescence anti-fading medium (Fluoromount; Southern Biotechnology, Birmingham, Ala.) and imaged by fluorescence microscopy (Axioplan, FITC filter, 40×; Carl Zeiss, Oberkochen, Germany). […] Leukocyte location was scored as being either arteriolar, venular, or capillary. The total number of adherent leukocytes per retina was counted. […]

[11] = system: leukocyte adhesion; experiment: Leukocyte adhesion ex vivo, concanavalin A lectin staining of retinal flatmounts, EIU rats; type: in vivo, rat; conditions: 1 mg/kg GA i.p. 24 h before LPS, evaluated 24 h after LPS, FIGS. 9-11
Method: as §1, §5

[12] = system: NF-κB; experiment: Retinal NF-κB activity, modified ELISA (Trans-AM), EIU rats; type: in vivo, rat; conditions: 1 mg/kg GA i.p. 24 h before LPS, FIG. 4
Method: as §1, §3

[13] = attributed to instability; cited from earlier work
[14] = stated for 17AAG in the description, no conditions given

C=CCNC1=C2C[C@@H](C)C[C@H](OC)[C@H](O)[C@@H](C)/C=C(\C)[C@H](OC(N)=O)[C@@H](OC)/C=C\C=C(/C)C(=O)NC(=CC1=O)C2=O [17AAG, 17-Allylamino-17-demethoxygeldanamycin]
expression of VEGF [1, 14]: reduces | expression of TNF-α [2, 14]: reduces | pharmacokinetic profile [3]: favorable pharmacokinetic profile | side effects [3]: transient and manageable side effects

COC1=C2C[C@@H](C)C[C@H](OC)[C@H](O)[C@@H](C)/C=C(\C)[C@H](OC(N)=O)[C@@H](OC)/C=C\C=C(/C)C(=O)NC(=CC1=O)C2=O [Geldanamycin]
LPS-induced increase of HIF-1α activity in the retina [4]: significantly suppressed | LPS-induced increase of HIF-1α activity in the retina ([4]; listed as geldanamycin): decreases | LPS-induced increase of VEGF levels in the retina [1]: significantly suppressed | LPS-induced increase of VEGF levels in the retina ([1]; listed as geldanamycin): decreases | LPS-induced increase of TNF-alpha levels in the retina [2]: significantly suppressed | LPS-induced increase of TNF-alpha levels in the retina ([2]; listed as geldanamycin): decreases | membrane CD14 levels in leukocytes [5]: decreases | membrane CD14 levels in leukocytes ([5]; listed as GA): significantly decreased | vascular leakage (blood-retinal barrier breakdown) ([6]; FIG. 12): significantly suppressed | vascular leakage (blood-retinal barrier breakdown) ([6]; FIG. 12, listed as geldanamycin): decreases | LPS-induced increase in total CD14 levels in the leukocytes [7]: does not affect | LPS-induced increase in total CD14 levels in the leukocytes ([7]; listed as GA): did not reduce | LPS-induced upregulation of retinal ICAM-1 levels [8]: decreases | MPO activity [9]: significantly suppressed | MPO activity ([9]; listed as geldanamycin): reduces | LPS-induced increase in leukocyte adhesion in vitro [10]: significantly suppressed | LPS-induced increase in leukocyte adhesion ex vivo [11]: significantly suppressed | LPS-induced increase of NF-κB activity in the retina [12]: significantly suppressed | LPS-induced increase of NF-κB activity in the retina ([12]; listed as geldanamycin): decreases

C[C@@H]1C[C@H]2O[C@@H]2/C=C\C=C\C(=O)Cc2c(Cl)c(O)cc(O)c2C(=O)O1 [radicicol, Radicicol]
activity in animals [13]: little or no activity
